Where “and” joins values, the source holds several entries; their conditions need not be identical. Equal entries are not always repeated.
Columns and labels:
[1] = parameters: method as in not given; conditions: ref not given, cited from earlier work
mouse mAsbt = target: T1, mouse mAsbt (Mus musculus, UniProt P70172); assay: Transport kinetics of conjugated 3-NBD-BA (concentration-dependent uptake); assay type: cell-based; parameters: stably transfected with the full open reading frames of human NTCP, ASBT, SOAT, OATP1B1, and OATP1B3 as well as mouse mNtcp and mAsbt; expressed in transfected cells; conditions: mAsbt-HEK293, 10 min uptake, 37 °C, specific (Na+-dependent) uptake
T1 sequence (P70172 1-348): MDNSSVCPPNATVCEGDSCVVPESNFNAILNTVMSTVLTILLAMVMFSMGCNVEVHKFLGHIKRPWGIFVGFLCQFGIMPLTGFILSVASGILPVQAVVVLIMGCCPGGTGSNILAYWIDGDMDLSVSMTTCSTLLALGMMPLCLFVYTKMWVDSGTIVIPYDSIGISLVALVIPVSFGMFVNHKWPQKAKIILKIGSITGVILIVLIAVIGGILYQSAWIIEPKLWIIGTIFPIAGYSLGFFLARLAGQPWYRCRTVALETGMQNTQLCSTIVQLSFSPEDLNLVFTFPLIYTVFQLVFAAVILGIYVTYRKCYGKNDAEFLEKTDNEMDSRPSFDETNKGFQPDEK
Protocol: (§1) In a first step, the time-dependent transport of all conjugated NBD-BA was analyzed. […] Based on these findings, an uptake phase of 10 min was selected as the most practical for subsequent kinetic transport measurements. […] In contrast, for ASBT, reliable carrier-specific concentration-dependent transport rates and K m values could only be determined for 3α-NBD-GCA (16d). The transport rates for 3β-NBD-TCA (14a), 3β-NBD-TCDCA (14b), 3β-NBD-GCA (16a), and 3α-NBD-TCA (14d) were at ≤ 2 across the entire concentration range and were therefore not considered biologically meaningful.
(§2) 7 ASBT and mAsbt transport kinetics for conjugated 3-NBD-BA. Concentration-dependent uptake of the indicated NBD-coupled BA was analyzed in HEK293 cells stably expressing human ASBT or mouse mAsbt at increasing substrate concentrations. Control experiments were performed in the absence of sodium (-Na^+). Uptake was analyzed for 10 min at 37 °C with transport buffer containing the indicated 3-NBD-BA. Afterward, the transport medium was removed, and each cell monolayer was washed and processed for fluorescence detection. Specific uptake was calculated by subtracting the nonspecific uptake in the absence of sodium (-Na^+, open symbols) from the uptake in the presence of sodium (+Na^+, closed symbols) and is shown by dotted lines. Values represent means ± SD of quadruplicate determinations. Michaelis Menten K m values were calculated by nonlinear regression analysis based on the specific uptake data. For ASBT, reliable specific uptake data could only be determined for 3α-NBD-GCA (16d).

human ASBT = target: T2, human ASBT (Homo sapiens, UniProt Q12908); assay: as above; assay type: cell-based; parameters: stably transfected with the full open reading frames of human NTCP, ASBT, SOAT, OATP1B1, and OATP1B3; expressed in transfected cells; conditions: for Transport rates via ASBT across the entire concentration range: ASBT-HEK293, 10 min, +Na+ vs -Na+, not considered biologically meaningful
T2 sequence (Q12908 1-348): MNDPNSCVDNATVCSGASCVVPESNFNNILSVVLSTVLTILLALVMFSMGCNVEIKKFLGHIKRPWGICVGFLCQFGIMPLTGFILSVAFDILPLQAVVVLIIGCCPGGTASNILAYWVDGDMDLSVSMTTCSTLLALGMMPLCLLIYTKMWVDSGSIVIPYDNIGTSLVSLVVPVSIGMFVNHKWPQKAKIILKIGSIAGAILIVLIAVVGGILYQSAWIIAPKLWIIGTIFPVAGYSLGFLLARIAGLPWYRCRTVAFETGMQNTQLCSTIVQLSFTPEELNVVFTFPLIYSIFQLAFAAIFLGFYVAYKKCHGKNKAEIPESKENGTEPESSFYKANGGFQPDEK
Protocol: as §1, §2

| Structure (SMILES) | Amount injected recovered in the bile ([1]; in situ liver perfusion, injected into the mesenterial vein, within 30 min) [%] | K m mAsbt (mouse mAsbt) | Transport rates via ASBT across the entire concentration range (human ASBT) | Fate in the liver (metabolism, secretion into bile) ([1]; in situ liver perfusion with bile duct cannulation) | K m ASBT (human ASBT; ASBT-HEK293, 10 min uptake, 37 °C, specific (Na+-dependent) uptake) [µM] |
| --- | --- | --- | --- | --- | --- |
| C[C@H](CCC(=O)NCCS(=O)(=O)[O-])[C@H]1CC[C@H]2[C@@H]3[C@H](O)C[C@@H]4C[C@@H](Nc5ccc([N+](=O)[O-])c6nonc56)CC[C@]4(C)[C@H]3C[C@H](O)[C@]12C.[Na+] [14a] | 95 | 20.0 µM and 20 µM | ≤ 2 |  |  |
| C[C@H](CCC(=O)NCCS(=O)(=O)[O-])[C@H]1CC[C@H]2[C@@H]3[C@H](O)C[C@@H]4C[C@H](Nc5ccc([N+](=O)[O-])c6nonc56)CC[C@]4(C)[C@H]3C[C@H](O)[C@]12C.[Na+] [14d] |  | 11.1 µM | ≤ 2 | completely transformed within the liver cells to a polar fluorescent metabolite that showed sparse secretion into bile |  |
| C[C@H](CCC(=O)NCC(=O)O)[C@H]1CC[C@H]2[C@@H]3[C@H](O)C[C@@H]4C[C@@H](Nc5ccc([N+](=O)[O-])c6nonc56)CC[C@]4(C)[C@H]3C[C@H](O)[C@]12C [16a] |  | 3.5 µM | ≤ 2 |  |  |
| C[C@H](CCC(=O)NCC(=O)O)[C@H]1CC[C@H]2[C@@H]3[C@H](O)C[C@@H]4C[C@H](Nc5ccc([N+](=O)[O-])c6nonc56)CC[C@]4(C)[C@H]3C[C@H](O)[C@]12C [16d] |  | 14.5 µM |  |  | 14.5 |
